3 compounds from paper PMC13503280, “A pharmacological modality to sequester homomeric proteins” (Nature Chemical Biology, 2026) can be followed below.

The target of data set [1] is T1, Keap1 and BCL6 (Homo sapiens, UniProt P41182+Q14145). Briefly: WB of Keap1 and BCL6 in Mino cells (hetero-PINCH). The class given is cell-based. Also on record: Mino cells that express high levels of BCL6; endogenous in cells; host or cells: Mino; OCI-AML2. To be noted: 20 h. Here is the method: (§1) Cells were incubated with DMSO at 0.1% or with compound in concentrations ranging 10–20,000 nM for 20 h unless indicated differently. Following incubation, lysis was performed in RIPA buffer and the samples were measured for total protein quantification by BCA assay (Thermo Fisher Scientific, 23225). Then, 20–40 μg of each sample was loaded and run on an SDS–PAGE gel, before transferring onto a nitrocellulose membrane using a Trans-Blot Turbo system (Bio-Rad) and blocking using a 5% BSA in TBS-T (w/v) solution for 1 h at room temperature. Incubation with primary antibodies (mouse anti-BCL-6 (sc-7388, Santa Cruz, 1:500; overnight at 4 °C), mouse anti-Keap1 (sc-365626, Santa Cruz, 1:500; overnight at 4 °C), rabbit anti-LDHA (4H18L6, Thermo Fisher, 1:1,000; overnight at 4 °C), mouse anti-NQO2 (sc-271665, Santa Cruz, 1:500; overnight at 4 °C), rabbit anti-c-Myc (5605, Cell Signaling, 1:1,000; overnight at 4 °C) and mouse anti-β-actin (3700, Cell Signaling, 1:1,000; 1 h at room temperature) was performed and then the membranes were washed and incubated with a horseradish-peroxidase-conjugated secondary antibody (mouse 7076/rabbit 7074, Cell Signaling) at room temperature for 1 h. Imaging of the chemiluminescence signal was performed using a ChemiDoc XRS+ instrument (Bio-Rad). Primary band quantifications were normalized against β-actin bands.

The target in data set [2] is T1, Keap1 and BCL6. Briefly: WB of Keap1 and BCL6 in OCI-AML2 cells (hetero-PINCH). The class given is cell-based. Also on record: endogenous in cells; host or cells: OCI-AML2. The conditions noted are these: 20 h. The method, then:
as §1

A further data set deals with Keap1 (Homo sapiens, UniProt Q14145). Briefly: WB of Keap1 in HEK 293 cells (hetero-PINCH). The class given is cell-based. Also on record: endogenous in cells; host or cells: HEK 293 (ATCC CRL-1573). The conditions noted are these: HEK 293 cells (does not express BCL6), 20 h. The method, then:
as §1

The next data set has as its target T2, BCL6(1–275)–GFP (Homo sapiens, UniProt P41182).
T2 construct: HEK 293 cells expressing GFP fused to BCL6 (residues 1–275); host or cells: HEK 293
Briefly: BCL6(1–275)–GFP puncta in HEK 293 cells. The class given is cell-based. The conditions noted are these: HEK 293 cells overexpressing BCL6(1–275)–GFP. Here is the method: Automatic aggregate segmentation was conducted using the surface module with manual threshold fixed for all images of the same experiment (default 2-pixel smoothing, background subtraction with 0.9-μm largest sphere, morphological split with 0.5-μm seed point diameter). Analysis was conducted per cell by manually selecting regions covering the individual cell and not overlapping with neighboring cells.

The subject of the next data set is HEK 293 cells. Briefly: Viability measurements, HEK 293 cells. To be noted: HEK 293 cells (lack BCL6 expression), 72 h. The class given is cell-based. The method, then: Cells were seeded in a transparent-bottom, black 96-well plate, at 15,000 cells per well in sixfold replications. in 90 µl of medium and left to adhere for at least 4 h. The cells were then treated with the respective compound by adding 10 µl of medium–-compound mixture for a final volume of 100 µl in each well. Cell-Titer blue reagent was used to measure viability according to the manufacturer’s instructions. Plate reader measurements were performed on a Tecan Spark Control 10 M fluorescence system.

The target of data set [3] is T3, recombinant BCL6 BTB domain (Homo sapiens, UniProt P41182).
T3 construct: The BCL6 BTB domain (5–129) was cloned into the pET28-bdSumo vector; His–bdSumo (N, cleaved yes); made in house; host or cells: E. coli BL21(DE3) (as described for Keap1 BTB)
Briefly: Intact protein LC–MS labeling of BCL6 BTB domain. The class given is binding. The conditions noted are these: 2 μM protein, 10 μM compound, incubation 90 min. From the text:
A covalent inhibitor of BCL6 that irreversibly binds a tyrosine residue in the BTB domain dimeric interface was previously reported. […] Importantly, the linker had to be long enough to minimize potential steric clashes between bridged homodimers yet short enough to forbid intramolecular binding of subunits from the same homodimer.
Extended Data Fig. 1 SAR of BCL6 targeting PINCHs. a. […] Representative results from 3 independent experiments, and c. These compounds’ structures. Source data

Data set [4] deals with T4, LDHA (Homo sapiens, UniProt P00338). Nature of the data set: Immunostaining of LDHA in U2OS cells. The class given is cell-based. The arrangement: endogenous in cells; host or cells: U2OS (ATCC HTB-96). The conditions noted are these: 5µM, 20 hours. The method, then:
For spinning disk confocal microscopy, cells were allowed to adhere to a 14-mm glass-bottom plate (MatTek P35G-1.5-14-C), followed by fixation with 3.7% formaldehyde for 5 min and permeabilization with 0.1% Triton X-100 for 10 min. The cells were then blocked with 5% BSA for 60 min at room temperature. Cells were stained with primary antibody, at a concentration of 1:100, for 3 h at room temperature and were then subjected to a secondary antibody conjugated to Alexa Fluor, at a concentration of 1:100–500, for 1 h at room temperature. Lastly, cells were also stained with DAPI for 10 min at room temperature.

Data set [5] addresses T4, LDHA. Nature of the data set: DLS of recombinant LDHA. The class given is biochemical. The arrangement: The gene encoding full-length WT human LDHA was cloned into pET28; His6 tag followed by a tobacco etch virus protease cleavage site (N); made in house; host or cells: Escherichia coli BL21(DE3). The conditions noted are these: room temperature, over time. The method, then:
DLS samples were prepared in the respective protein’s elution buffer, to which 0.01% Tween was added, along with the compound from a DMSO stock to obtain a final DMSO concentration of 2%. Samples were prepared at room temperature and measured at a constant temperature of 25 °C. All samples were passed through 0.1-μm filters and then placed in a clear-bottom black 384-well plate. DLS data were recorded using a DynaproPlate Reader III (Wyatt Technology). Data were processed with the supplied DYNAMICS software.

Sequence of Keap1 (Q14145 whole entry): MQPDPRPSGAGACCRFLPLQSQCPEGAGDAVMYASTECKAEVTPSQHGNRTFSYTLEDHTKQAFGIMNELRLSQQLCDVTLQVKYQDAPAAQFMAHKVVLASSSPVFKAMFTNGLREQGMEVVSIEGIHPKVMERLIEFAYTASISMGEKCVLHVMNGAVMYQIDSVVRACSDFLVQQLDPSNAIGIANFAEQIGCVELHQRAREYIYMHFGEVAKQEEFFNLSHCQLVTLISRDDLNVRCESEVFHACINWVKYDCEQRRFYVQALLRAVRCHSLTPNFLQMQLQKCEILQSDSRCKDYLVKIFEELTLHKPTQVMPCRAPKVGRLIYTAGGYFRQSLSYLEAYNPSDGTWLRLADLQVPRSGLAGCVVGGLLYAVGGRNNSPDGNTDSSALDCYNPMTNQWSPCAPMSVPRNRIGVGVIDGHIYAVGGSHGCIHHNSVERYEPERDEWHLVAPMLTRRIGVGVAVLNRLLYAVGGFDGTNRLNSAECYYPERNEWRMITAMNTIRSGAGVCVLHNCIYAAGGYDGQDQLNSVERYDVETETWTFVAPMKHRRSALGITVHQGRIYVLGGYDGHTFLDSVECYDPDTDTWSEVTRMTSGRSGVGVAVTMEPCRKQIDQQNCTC

In the case of `COc1cc(Nc2cc(NCc3cccc(S(=O)(=O)F)c3)ccc2Cl)cc2cc(OCC(=O)NCCOCCOCCOCCOCCOCCOCCOCCOCCOCCOCCOCCOCCNC(=O)[C@]34CCC(C)(C)C[C@H]3[C@H]3C(=O)C=C5[C@@]6(C)C=C(C#N)C(=O)C(C)(C)[C@@H]6CC[C@@]5(C)[C@]3(C)CC4)c(=O)n(C)c12` [EL230], the “Keap1 and BCL6 levels in soluble/insoluble phase (WB)” value at Keap1 and BCL6 [1] was “reduction in both Keap1 and BCL6 levels in the soluble phase”. Also, at Keap1 and BCL6 [2], the “Keap1 and BCL6 levels (WB)” value was “Keap1 and BCL6 were downregulated simultaneously”. For the same compound, the “Keap1 level (WB)” value on Keap1 is “Keap1 remained unchanged”.

With `CNC(=O)COc1cc2cc(Nc3cc(NCc4cccc(S(=O)(=O)F)c4)ccc3Cl)cc(OC)c2n(C)c1=O` [w8001], at BCL6(1–275)–GFP, the “BCL6–GFP puncta formation” value is on record as “no such puncta”. Besides, the effect on viability result with HEK 293 cells is recorded as “no compound affected the viability”. In addition, in data set [3], the “labeling of recombinant BCL6 BTB domain by intact protein LC–MS” value turned out to be 100%.

With `Cc1nc2ccc(NC(=O)CC(NC(=O)CCCc3ccc(CC(C(=O)O)C(=O)O)cc3)C(=O)NCCOCCOCCOCCOCCNC(=O)C(CC(=O)Nc3ccc4nc(C)sc4c3)NC(=O)CCCc3ccc(CC(C(=O)O)C(=O)O)cc3)cc2s1` (centres unmarked) [OS-47B], the “LDHA localization (immunostaining)” value at LDHA [4] is “no effect on LDHA localization”. Besides, the “formation of larger species (DLS)” value at LDHA [5] was “formation of larger species over time”.
